For data set [1], the target named is T1, 12-lipoxygenase (Rattus norvegicus, UniProt F1LQ70).
T1 construct: The platelets were then sonicated at 4° C. and centrifuged at 100,000×g for 30 minutes to obtain a supernatant as a 12-lipoxygenase enzyme solution; from tissue; host or cells: Sprague Dawley rat platelets (from aortic blood), sonicated, 100,000 x g supernatant
T1 sequence (F1LQ70 1-663): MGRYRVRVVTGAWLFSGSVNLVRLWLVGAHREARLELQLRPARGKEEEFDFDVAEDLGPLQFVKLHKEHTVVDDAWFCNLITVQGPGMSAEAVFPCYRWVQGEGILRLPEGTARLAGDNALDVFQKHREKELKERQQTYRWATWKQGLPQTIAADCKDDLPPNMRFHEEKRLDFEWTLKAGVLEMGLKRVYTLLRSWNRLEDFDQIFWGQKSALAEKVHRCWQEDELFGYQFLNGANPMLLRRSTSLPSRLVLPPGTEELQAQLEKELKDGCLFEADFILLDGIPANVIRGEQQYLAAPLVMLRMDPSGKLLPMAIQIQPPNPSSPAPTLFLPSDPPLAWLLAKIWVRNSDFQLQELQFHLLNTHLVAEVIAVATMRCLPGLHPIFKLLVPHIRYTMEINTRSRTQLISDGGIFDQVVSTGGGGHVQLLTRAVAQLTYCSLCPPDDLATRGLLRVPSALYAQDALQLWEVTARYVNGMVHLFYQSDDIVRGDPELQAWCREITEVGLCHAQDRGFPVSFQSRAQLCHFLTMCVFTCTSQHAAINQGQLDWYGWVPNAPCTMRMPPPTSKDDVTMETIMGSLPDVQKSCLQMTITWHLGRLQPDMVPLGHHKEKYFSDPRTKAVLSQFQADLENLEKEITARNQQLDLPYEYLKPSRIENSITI
Put plainly: 12-lipoxygenase inhibition assay (rat platelet supernatant, arachidonic acid, HPLC of 12-HETE). In kind it is biochemical, Sprague Dawley male rat (platelets). The method, then: (§1) A Sprague Dawley male rat was anesthetized with ether and bled from abdominal aorta using a syringe filled with about one-tenth volume of 3.8% sodium citrate. Blood was centrifuged at 180×g for 15 minutes at room temperature to pellet sanguineous platelet blood plasma. The resultant supernatant was again centrifuged at 1800×g for 10 minutes at 4° C. The pelleted platelets were rinsed twice with a washing buffer (50 mM Tris-hydrochloric acid buffer containing 154 mM sodium chloride and 2 mM EDTA, pH: 7.4). The platelets were then suspended in one-twentieth volume of a resuspension buffer (50 mM Tris-hydrochloric acid buffer containing 154 mM sodium chloride and 5.5 mM glucose, pH: 7.4). The platelets were then sonicated at 4° C. and centrifuged at 100,000×g for 30 minutes to obtain a supernatant as a 12-lipoxygenase enzyme solution.
(§2) The enzyme solution described above was diluted with the resuspension buffer above mentioned to prepare an assay solution so as to include about 2 mU/ml of 12-lipoxygenase. To an aliquot (300 μl) of the assay solution was added 1 μl of a 3 mM indomethacin-ethanol solution, 1 μl of an aqueous 300 mM reduced-glutathione solution, and 3 μl of varied concentrated test compounds solution in ethanol. The resultant mixture was incubated at 37° C. for 5 minutes. Subsequently, 3 μl of a 2.5 mM arachidonic acid solution in ethanol was added to incubate with for another 5 minutes at 37° C., then the reaction was ceased by the addition of 600 μl of methanol. After being centrifuged at 10,000×g for 5 minutes, 12-hydroxyeicosatetraenoic acid recovered in the supernatant was separated with a reverse phase high-performance liquid chromatography equipped with a C-18 column and measured the absorption of diene at 234 nm to quantify the activity of 12-lipoxygenase.
(§3) As test compounds were used the compounds of the present invention prepared in the same methods as in Example 4, Example 5 and Example 8 and the compounds prepared in the same methods as in Comparative Examples 1-5, and as a control was used esculetin (purchased from Tokyo Kasei), a known compound represented by the following formula: [drawing 33] and the test was conducted at varied concentrations.
(§4) The enzyme solution was prepared according to the same manner as in Test Example 1.
(§5) The inhibition assay was performed according to the same method as described in Test Example 1 except that the same samples used in measurement of the 5-lipoxygensase activity were used to estimate IC50 values. […]
(§6) They were measured in the same method as in Test Example 1.

Data set [2] has as its system 12-lipoxygenase. The description is as above. In kind it is biochemical, Sprague Dawley male rat (platelets). The settings on record: comparative tests by the inventors. The method, then:
as §1, §2, §3, §4, §5, §6

Data set [3] addresses T2, 5-lipoxygenase (Rattus norvegicus, UniProt P12527).
T2 construct: host or cells: RBL-1 (rat basophilic leukemia cells)
T2 sequence (P12527 1-673): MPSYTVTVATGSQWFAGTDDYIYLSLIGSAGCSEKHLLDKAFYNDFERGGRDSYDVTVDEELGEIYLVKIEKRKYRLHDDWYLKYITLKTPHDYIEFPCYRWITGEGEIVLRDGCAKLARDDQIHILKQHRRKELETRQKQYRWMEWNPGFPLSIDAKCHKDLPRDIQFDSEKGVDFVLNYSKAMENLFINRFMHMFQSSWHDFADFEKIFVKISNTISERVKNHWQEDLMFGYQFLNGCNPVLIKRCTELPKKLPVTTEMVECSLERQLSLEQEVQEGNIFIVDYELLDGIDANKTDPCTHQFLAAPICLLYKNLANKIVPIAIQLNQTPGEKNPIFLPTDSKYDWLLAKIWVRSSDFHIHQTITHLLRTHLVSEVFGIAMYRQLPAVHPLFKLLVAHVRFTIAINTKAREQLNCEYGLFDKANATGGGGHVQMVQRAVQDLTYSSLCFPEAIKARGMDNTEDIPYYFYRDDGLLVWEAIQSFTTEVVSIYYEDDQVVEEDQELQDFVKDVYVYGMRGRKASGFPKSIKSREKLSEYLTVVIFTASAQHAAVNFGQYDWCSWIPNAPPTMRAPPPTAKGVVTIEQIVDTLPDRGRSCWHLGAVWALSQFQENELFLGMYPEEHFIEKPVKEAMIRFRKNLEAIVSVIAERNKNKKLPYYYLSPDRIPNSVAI
The experiment in a line: 5-lipoxygenase inhibition assay (RBL-1 supernatant, arachidonic acid, HPLC of 5-HETE). The format is biochemical, rat (basophilic leukemia cells RBL-1, ATCC CRL1378). The method, then: Rat basophilic leukemia cells (RBL-1, ATCC CRL1378) were cultured in Dulbecco modified Eagle's medium containing 10% new-born bovine serum.
Cultured cells were collected and washed twice with a 50 mM Tris-buffered saline (containing 154 mM sodium chloride, pH: 7.4, hereinafter described as TBS). The cell suspension (4×10^7 cells/ml) was then sonicated and centrifuged at 10,000×g for 10 minutes.
The resultant supernatant was used to prepare an assay solution.
To an aliquot (15 μl) of the enzyme solution (40 mU/ml equivalent) was added 185 μl of TBS, 50 μl of a 2 mM adenosine triphosphate in TBS, 50 μl of a 12 mM calcium chloride in TBS, 1 μl of a 3 mM indomethacin in ethanol solution, 1 μl of an aqueous 300 mM reduced glutathione solution, and 3 μl of varied concentrated test compounds solution in ethanol. The resultant mixture was incubated at 37° C. for 5 minutes. Subsequently, 3 μl of a 2.5 mM arachidonic acid solution in ethanol was added to incubate the mixture for 2 minutes at 37° C. The reaction was ceased by the addition of 600 μl of methanol. After being centrifuged at 10,000×g for 5 minutes, 5-hydroxyeicosatetraenoic acid recovered in the supernatant was separated with a reverse phase high-performance liquid chromatography equipped with a C-18 column and measured the absorption of diene at 234 nm to quantify the activity of the enzyme.
Using the compounds of the present invention prepared in the same manner as in Examples 1-30, and Examples 33-36 as test samples and known baicalein (purchased from Wako Junyaku Kogyo) represented by the following formula 30 as a control: [drawing 34] the tests were performed for dose dependent inhibition to estimate IC50 values
It was prepared in the same method as in Test Example 2.
They were measured in the same method as in Test Example 2.

The test system of data set [4] is 12-lipoxygenase of mastocytoma cells. The following applies: literature; cited from earlier work.
The nature of data set [5]: Formation of deacylated compounds by esterases in rat platelet enzyme solution (HPLC). The format is in vitro ADME, rat (platelets). The settings on record: rat, platelet enzyme solution, 37° C., enzyme solution, read-out: conversion ratio to Formula 34b. The method, then: (§7) The test was performed to examine whether or not deacylated compounds would be formed due to esterases present in the enzyme solution when the compounds in the third embodiment according to the present invention were treated with the same enzyme solution as in Test Example 3.
(§8) The enzyme solution was prepared according to the same procedure as described in Test Example 1.
(§9) One ml of the above mentioned enzyme solution was diluted with 11 ml of a resuspension buffer. To an aliquot (300 μl) of this enzyme solution was added 3 μl of a 1.0×10^-3 M test compound solution in dimethyl sulfoxide. The mixture was incubated at 37° C. for an indicated time, then the reaction was ceased by the addition of 1 ml of acetonitrile. Twenty μl of the above mixture was subjected to reverse phase high-performance liquid chromatography equipped with a C-18 column to quantify the amount of deacylated products. As a control, a test using 300 μl of the resuspension buffer solution mentioned above instead of the enzyme solution was also performed.
(§10) Conditions of reverse phase high-performance liquid chromatography:
(§11) Column: Superspher RP-18(e) (purchased from Merck), 4.0 mm in diameter, 125 mm in length
(§12) Flow velocity: 1.0 ml/minute
(§13) Eluent: Acetonitrile containing 50 mM NaClO4 and 50 mM orthophosphate-water (55:45)
(§14) Column temperature: 30° C.
(§15) Calibration: Absorbance of 280 nm
(§16) The results of the test upon the compounds of Example 40 (Formula 43b) and Example 57 (Formula 74b) of the compounds according to the present invention will be shown. Since both the compounds of Example 40 (Formula 43b) and Example 57 (Formula 74b) are thought to be converted into the compound of Referential Example 8 (Formula 34b) through deacylation, the retention time of the compound of Referential Example 8 was checked strictly under the employed conditions with reverse phase high-performanceliquid chromatography mentioned above (retention time: 2.49 minutes) and a calibration curve of the compound was made using authentic sample of Referential Example 8.

Data set [6] deals with esterases present in the enzyme solution. The data set is described as above. The format is in vitro ADME, rat (platelets). The following applies: resuspension buffer instead of the enzyme solution. The method, then:
as §7, §8, §9, §10, §11, §12, §13, §14, §15, §16

Data set [7] has as its system 5-lipoxygenase. The settings on record: 10 uM, cited from earlier work.
Data set [8] concerns 12-lipoxygenase. The settings on record: same concentration (10 uM), platelets; cited from earlier work.

In the case of `O=c1ccc2cc(O)c(O)cc2o1` [Esculetin, 6,7-dihydroxycoumarin, reference compound], the “12-lipoxygenase inhibitory activity (in words)” value on 12-lipoxygenase [1] is on record as “considerably weaker inhibitory effect on 12-lipoxygenase than the compounds of the present invention”. The IC50 (commonly the concentration that inhibits the measured activity by half) is 4.4 µM against 12-lipoxygenase [1] (12-Lipoxygenase inhibiting activity IC50 value, Test Example 5, Table 22); 4.4 µM on 12-lipoxygenase [1] (12-lipoxygenase IC50 value, Test Example 1, Table 1 and text); 4.3 µM at 5-lipoxygenase [3]; 2.5 µM in data set [4]. In addition, in the data set with 12-lipoxygenase [2], the “selectivity between 12-lipoxygenase and 5-lipoxygenase (in words)” value is “no selectivity was found”.
For the compound `CCC(=O)Oc1cc2cc(-c3cccc(Cl)c3)c(=O)oc2cc1OC(=O)CC` [Example 57], the metabolised at 0.5 h, 10 µM in data set [5] (reaction time 30 minute) amounted to 42.4%. Moreover, in data set [5] (reaction time 60 minute), the metabolised at 1 h, 10 µM was 60.4%. The “formation of deacylated compound in buffer control” value in data set [6] is “no deacylated compound (Formula 34b) was formed”.
Consider `Oc1ccc(C2COc3cc(O)c(O)cc3C2)cc1` (stereo not drawn) [compound of 12), 4',6,7-trihydroxyisoflavan], for which the “inhibition of formation of 5-lipoxygenase metabolic products” value with 5-lipoxygenase [7] (human peripheral leukocytes) was “completely”. Further, the “selectivity between 5-lipoxygenase and 12-lipoxygenase (in words)” value with 5-lipoxygenase [7] (literature, leukocytes vs. platelets) is reported as “selective toward 5-lipoxygenase”. For the same compound, the “inhibition of formation of 12-lipoxygenase metabolic products” value with 12-lipoxygenase [8] was 25%.

Values taken from patent publication US5574062A, “Coumarin derivative and use thereof” (Morinaga Milk Industry Co., Ltd., priority 1993, dated 1996).
